# Where two headings read alike, the source gives them in different places.
# Assays:
# [1] = biological target: IDO1 enzyme (Homo sapiens (Human), UniProt P14902); test: Determination of the IDO1 inhibitory activity of compounds (enzyme assay, absorbance at 480 nm); assay type: biochemical; conditions: 50 nM IDO1, 37° C., 30 minutes, pH 6.5, 1% DMSO; average of two tests
# Description: 100 mM PBS containing 400 μM L-tryptophan, 20 mM ascorbate, 20 μM methylene blue and 1000 U/ml catalase, pH 6.5
# All compounds were dissolved with DMSO. During the assay, each compound was diluted to a concentration as needed. The compound of each concentration was added to multi-wells, and the final concentration of DMSO was controlled at 1%.
# a.) the reaction mixture was prepared by adding 50 nM IDO1 and the desired concentration of the test compound to 100 μL of IDO1 assay buffer. IDO1 and assay buffer need to be preheated to 37° C.
# b.) The mixture was reacted in a constant temperature water tank at 37° C. for 30 minutes.
# c.) 50 μL of 30% trichloroacetic acid was added.
# d.) The above mixture was reacted in a constant temperature water tank at 52° C. for 30 minutes.
# e.) The reaction mixture was centrifuged at 12000 g for 10 minutes at room temperature.
# f.) 100 μL of the obtained supernatant and 100 μL of Ehrlich reagent were mixed.
# g.) the absorbance at 480 nm was measured using an M5 microplate reader.
# 4. Data Analysis Inhibition rate=(ODpostive−ODsample)/(ODpositive−ODnegative)*100% 5. Results and Discussion
# In this experiment, the inhibitory activity of the test compounds on the IDO1 enzyme was tested. Compounds of each diluted concentration were tested in multi-wells. The final concentration of the reaction system in DMSO was controlled to 1%. The inhibition rate was tested twice, and the average value was taken.
# [2] = biological target: IDO protease in highly expressed HeLa cells (Homo sapiens (Human), UniProt P14902); test: Inhibitory activity of compounds on IDO protease in highly expressed HeLa cells; assay type: cell-based; conditions: highly expressed HeLa cell line
# Chain of IDO protease in highly expressed HeLa cells (P14902 whole entry): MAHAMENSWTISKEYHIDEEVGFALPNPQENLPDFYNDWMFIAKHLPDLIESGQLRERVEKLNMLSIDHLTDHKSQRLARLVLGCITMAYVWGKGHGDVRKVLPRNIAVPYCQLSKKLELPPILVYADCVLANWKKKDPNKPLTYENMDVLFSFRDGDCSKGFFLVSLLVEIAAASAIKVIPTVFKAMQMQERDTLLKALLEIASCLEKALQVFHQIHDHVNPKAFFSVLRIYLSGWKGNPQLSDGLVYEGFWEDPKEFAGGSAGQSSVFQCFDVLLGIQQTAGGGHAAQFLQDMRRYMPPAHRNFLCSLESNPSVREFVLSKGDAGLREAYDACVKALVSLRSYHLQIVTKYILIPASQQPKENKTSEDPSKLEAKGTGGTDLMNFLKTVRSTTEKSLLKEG
# Description: This method was used to determine the inhibitory effect of the compounds of the invention on the inhibitory activity of IDO protease in highly expressed HeLa cells.
# Highly expressed HeLa cell line
# a.) 50 μL of 30% trichloroacetic acid was added.
# b.) The mixture was reacted in a constant temperature water tank at 52° C. for 30 minutes.
# c.) The above mixture was centrifuge at 12,000 g for 10 minutes at room temperature.
# d.) 100 μL of the supernatant was mixed with 100 μL of Ehrlich reagent.
# e.) the absorbance was measured at 480 nm using an M5 microplate reader.
# The software Graphpad Prism 5 was used with the calculation formula of log(inhibitor) vs. normalized response to perform IC50 curve fitting and the IC50 value was calculated.
# [3] = Pharmacokinetic evaluation in SD rats after oral administration by single gavage; assay type: in vivo; conditions: rat, PO 75 mg/kg, plasma; for half-life: read-out: t½ (converted)
# Description: 1. Experimental animals: 100 (half male and half female) SPF grade SD rats were purchased from Shanghai Cypre-Bikai Experimental Animal Co., Ltd. Among them, 72 medically qualified and healthy SD rats without abnormality (half male and half female) were used for the study. 2. Animal Administration
# 72 SD rats (half male and half female) were tested according to the following table. The drug samples were stirred at least 10 minutes before administration.
# Blood samples were obtained through the jugular vein puncture, and each sample was collected for about 0.25 mL and added with heparin sodium for anticoagulation. The blood sampling was performed at time points as follows:
# for oral administration group, before administration, 0.25 h, 0.5 h, 1 h, 2 h, 4 h, 6 h, 8 h, 24 h after administration.
# After collection, the blood samples were placed on ice and the plasma was separated by centrifugation (centrifugation conditions: 8000 rpm, 6 minutes, 2-8° C.). The collected plasma was stored at −80° C. before analysis. Plasma samples were analyzed by the analysis department of the experimental institution using LC-MS/MS for the content of the test compound in the rat plasma. The LLOQ of the detection substance was 1 ng/mL.
# According to the blood plasma concentration data of the drugs, the pharmacokinetic calculation software WinNonlin5.2 non-compartmental model was used to calculate the pharmacokinetic parameters AUC0-t, Cmax, Tmax, T1/2 d and other parameters of the test samples and their average value and standard deviation.
# When pharmacokinetic parameters were calculated for samples with lower concentration than the lower limit of quantification, samples taken before the curve reached Cmax should be calculated with zero value, and samples taken after the curve reached Cmax should be calculated with non-quantitative (BLQ).
# The main pharmacokinetic parameters of compounds in SD rats plasma after oral administration by single gavage
# Chain of IDO1 enzyme (P14902 whole entry, species assumed): as the sequence (P14902 whole entry) above
compound,measurement,setting,value
O/N=C(\Nc1ccc(F)c(F)c1)c1nonc1N1CCCCO1 [Compound I-38],IC50,[1],0.078 µM
NS(=O)(=O)NOCCONc1nonc1/C(=N/O)Nc1ccc(F)c(Br)c1 [Compound I-44],IC50,[1],0.078 µM
NS(=O)(=O)NC1CCC(ONc2nonc2/C(=N/O)Nc2ccc(F)c(F)c2)CC1 (stereo not drawn) [Compound I-31],IC50,[1],0.042 µM
O/N=C(\Nc1ccc(F)c(Br)c1)c1nonc1NOCCONc1nonc1/C(=N/O)Nc1ccc(F)c(Br)c1 [Compound I-43],IC50,[2],0.038 µM
same,IC50,[1],0.035 µM
NC(CCONc1nonc1/C(=N/O)Nc1ccc(F)c(Br)c1)C(=O)O (stereo not drawn) [Compound I-16],IC50,[2],0.035 µM
same,IC50,[1],0.042 µM
O=C(CCC1CCC(ONc2nonc2/C(=N/O)Nc2ccc(F)c(F)c2)CC1)Nc1ccc(F)cc1 (stereo not drawn) [Compound I-50],IC50,[2],0.021 µM
same,IC50,[1],0.028 µM
"NS(=O)(=O)NCCNc1nonc1C(=NO)Nc1ccc(F)c(Br)c1 [INCB024360, Epacadostat, reference compound]",AUC(0-inf),[3]; female SD rats,11300 ng·h/mL
same,Cmax,[3]; female SD rats,3410 ng/mL
same,half-life,[3]; female SD rats,2.51 h
same,AUC(0-inf),[3]; male SD rats,12200 ng·h/mL
same,Cmax,[3]; male SD rats,3940 ng/mL
same,Tmax,[3]; male SD rats,0.5 h
same,half-life,[3]; male SD rats,2.24 h
COC(=O)CSNc1nonc1/C(=N/O)Nc1ccc(F)cc1 [Compound I-51],IC50,[1],0.083 µM
O=C(NCCONc1nonc1/C(=N/O)Nc1ccc(F)c(Br)c1)Nc1cc(F)cc(F)c1 [Compound I-40],AUC(0-inf),[3]; female SD rats,7540 ng·h/mL
same,Cmax,[3]; female SD rats,4240 ng/mL
same,Tmax,[3]; female SD rats,1 h
same,half-life,[3]; female SD rats,1.45 h
same,AUC(0-inf),[3]; male SD rats,8250 ng·h/mL
same,Cmax,[3]; male SD rats,4760 ng/mL
same,Tmax,[3]; male SD rats,1 h
same,half-life,[3]; male SD rats,1.67 h
O=C1NC(=O)C2(CCC(ONc3nonc3/C(=N/O)Nc3ccc(F)c(F)c3)CC2)N1 (stereo not drawn) [Compound I-49],IC50,[1],0.066 µM
Nc1ncc(C(=O)NCCONc2nonc2/C(=N/O)Nc2ccc(F)c(Cl)c2)s1 [Compound I-10],IC50,[1],0.09 µM
O/N=C(\Nc1ccc(F)c(F)c1)c1nonc1NOC1CCC(O)CC1 (stereo not drawn) [Compound I-35],IC50,[1],0.094 µM
NS(=O)(=O)NC(CO)CONc1nonc1/C(=N/O)Nc1ccc(F)cc1 (stereo not drawn) [Compound I-23],IC50,[2],0.038 µM
same,IC50,[1],0.036 µM
NS(=O)(=O)NC1(CONc2nonc2/C(=N/O)Nc2ccc(F)c(Br)c2)CC1 [Compound I-20],IC50,[2],0.008 µM
same,IC50,[1],0.018 µM
same,AUC(0-inf),[3]; female SD rats,1990 ng·h/mL
same,Cmax,[3]; female SD rats,3330 ng/mL
same,Tmax,[3]; female SD rats,0.5 h
same,half-life,[3]; female SD rats,1.42 h
same,AUC(0-inf),[3]; male SD rats,2390 ng·h/mL
same,Cmax,[3]; male SD rats,4240 ng/mL
same,Tmax,[3]; male SD rats,1 h
same,half-life,[3]; male SD rats,1.98 h
CS(=O)(=O)NCCONc1nonc1/C(=N/O)Nc1ccc(F)c(F)c1 [Compound I-13],IC50,[1],0.124 µM
OCCCONc1nonc1/C(=N/O)Nc1ccc(F)c(Cl)c1 [Compound I-15],IC50,[1],0.093 µM
NS(=O)(=O)NCCCCONc1nonc1/C(=N/O)Nc1ccc(F)c(Br)c1 [Compound I-26],IC50,[1],0.092 µM
O=C(NCCONc1nonc1/C(=N/O)Nc1ccc(F)c(C(F)(F)F)c1)c1ccc(F)cc1 [Compound I-9],IC50,[1],0.085 µM
O/N=C(\Nc1ccc(F)c(F)c1)c1nonc1NOC1CCCCO1 (stereo not drawn) [Compound I-39],IC50,[1],0.142 µM
CC(N/C(=N\O)c1nonc1NOCCNS(N)(=O)=O)c1ccccc1 (stereo not drawn) [Compound I-27],IC50,[2],0.026 µM
same,IC50,[1],0.042 µM
O=C(O)CCCONc1nonc1/C(=N/O)Nc1ccc(F)c(Br)c1 [Compound I-18],IC50,[1],0.183 µM
O/N=C(\Nc1ccc(F)c(C(F)(F)F)c1)c1nonc1NOCCc1cccs1 [Compound I-7],IC50,[1],0.113 µM
NS(=O)(=O)NCCONc1nonc1/C(=N/O)Nc1ccc(F)c(Br)c1 [Compound I-24],IC50,[2],0.005 µM
same,IC50,[1],0.008 µM
same,AUC(0-inf),[3]; female SD rats,18700 ng·h/mL
same,Cmax,[3]; female SD rats,7240 ng/mL
same,Tmax,[3]; female SD rats,1 h
same,half-life,[3]; female SD rats,2.34 h
same,AUC(0-inf),[3]; male SD rats,20700 ng·h/mL
same,Cmax,[3]; male SD rats,8760 ng/mL
same,Tmax,[3]; male SD rats,1 h
same,half-life,[3]; male SD rats,2.12 h
COC(=O)C(CCONc1nonc1/C(=N/O)Nc1ccc(F)c(F)c1)NS(N)(=O)=O (stereo not drawn) [Compound I-22],IC50,[1],0.064 µM
OCCONc1nonc1/C(=N/O)Nc1ccc(F)c(Br)c1 [Compound I-14],IC50,[1],0.081 µM
Cc1ccc(CCONc2nonc2/C(=N/O)Nc2ccc(F)c(Br)c2)cc1 [Compound I-8],IC50,[1],0.094 µM
NS(=O)(=O)NCCONc1nonc1/C(=N/O)NCc1ccccc1 [Compound I-25],IC50,[1],0.068 µM

# From patent US11214554B2, “Indoleamine 2,3-dioxygenase inhibitor, method for preparation and use thereof” (NANJING HUAWE MEDICINE TECHNOLOGY GROUP CO., LTD., priority 2018, dated 2022)
